Measured values from PMC7367369, “A small library of chalcones induce liver cancer cell death through Akt phosphorylation inhibition” (Scientific Reports, 2020).
Read-outs that look alike come from different tables or passages of the source.

Legend:
Huh7 = test: NCI-60 sulforhodamine B (SRB) cytotoxicity assay, Huh7; assay type: cell-based, human; conditions: Homo sapiens, read-out: IC50 Huh7
Method: (§1) The bioactivities of the synthesized chalcones were assessed on human liver cancer cell lines and on DPSCs with NCI-SRB assay in vitro. DPSCs used to asses the bioactivity of chalcones on untransformed control cells with the potential of hepatic lineage. […] We also included 5-Fluorouracil which is used in clinics for gastrointestinal cancers and Sorafenib. All results were normalized to DMSO negative control measurements. The experiment was performed in triplicate.
(§2) Well differentiated human primary liver cancer cell lines Huh7, HepG2 and Hep3B, and poorly differentiated Mahlavu, FOCUS and SNU475 HCC cells were cultured in Dulbecco’s Modified Eagle’s Standard (DMEM) medium supplemented with 10% Fetal Bovine Serum (FBS), 100 units/mL penicillin and 100 µg/mL streptomycin (Gibco, Invitrogen, Carlsbad, CA, USA). 0.1 mM nonessential amino acids (NEAA) which are specific to HCC cell lines also added to culture media. Cells were cultured in a 5% CO2 incubator at 37^∘C
(§3) Primary liver cancer cells Huh7, HepG2, Hep3B, Mahlavu, FOCUS, Snu475 along with hepatic progenitor Dental pulp stem cells were seeded into 96-well plates (1,000–3,000 HCC cell/well and 10,000 cells DPSC/well ) for 24 h. The cells were then treated with increasing concentrations of the chalcones ( 2.5-40μM ). DMSO (AppliChem Biochemica, Darmstadt, Germany) was used as negative control. The growth has stopped at the end of 72 h by fixing cold with 10% (v/v) trichloroacetic acid (Merck, Schuchardt, Germany). Cells were then stained with 0.4% (m/v) of sulforhodamine (Sigma-Aldrich, St. Louis, USA) in 1% acetic acid solution. The absorbency values were acquired at 515 nm. All experiments were done in triplicate.

HepG2 = test: NCI-60 sulforhodamine B (SRB) cytotoxicity assay, HepG2; assay type: cell-based, human; conditions: Homo sapiens, HepG2; SRB, 72 h, 2.5–40 μM, triplicate; read-out: IC50 HepG2
Method: as §1, §2
as §3, with “The absorbency values were acquired at 515 nm.” left out

Hep3B = test: NCI-60 sulforhodamine B (SRB) cytotoxicity assay, Hep3B; assay type: cell-based, human; conditions: Homo sapiens, Hep3B; SRB, 72 h, 2.5–40 μM, triplicate; read-out: IC50 Hep3B
Method: as §1, §2
as §3, with “The absorbency values were acquired at 515 nm.” left out

Mahlavu [1] = test: NCI-60 sulforhodamine B (SRB) cytotoxicity assay, Mahlavu; assay type: cell-based, human; conditions: Homo sapiens, Mahlavu; SRB, 72 h, 2.5–40 μM, triplicate; read-out: IC50 Mahlavu
Method: as §1, §2
as §3, with “The absorbency values were acquired at 515 nm.” left out

FOCUS = test: NCI-60 sulforhodamine B (SRB) cytotoxicity assay, FOCUS; assay type: cell-based, human; conditions: Homo sapiens; SRB, 72 h, 2.5–40 μM, triplicate; read-out: IC50 FOCUS
Method: as §1, §2
as §3, with “The absorbency values were acquired at 515 nm.” left out

Mahlavu [2] = test: Real-time cell electronic sensing (RT-CES) growth analysis, Mahlavu; assay type: cell-based; conditions: Homo sapiens
Method: The selected 3 compounds were further analyzed with real-time cell electronic sensing (RT-CES) system to assess the real-time growth behavior of the cells treated with the compounds. Huh7 and Mahlavu liver cancer cells were treated with the selected chalcones and monitored with RT-CES. Results of the compounds were normalized to data of negative control DMSO.
Figure 2 Real-time cell growth analysis. Human liver cancer cells Huh7 (left panel) and Mahlavu (right panel) were treated with the selected compounds. Cell index measurements were obtained by RT-CES software. DMSO was used as negative control. (A) The growth inhibition values of the compounds were obtained by the normalization with DMSO. Experiments were performed in triplicate. (B) IC50 values calculated from RT-CES experiment data. TEXT PRINTED IN THE PICTURE: (B) 1: Huh7 24h: 3.7; Huh7 72h: 5.2; Mahlavu 24h: 1.2; Mahlavu 72h: 2.3 | (B) 9: Huh7 24h: 16.1; Huh7 72h: 11.5; Mahlavu 24h: 4.9; Mahlavu 72h: 6.8 | (B) 11: Huh7 24h: 8.7; Huh7 72h: 8.8; Mahlavu 24h: 4.9; Mahlavu 72h: 6.8 DOUBTS OF THE COPYIST ABOUT THIS PICTURE: Panel B table: the picture prints no measure and no unit for the values
Huh7 and Mahlavu cells were inoculated into the e-plate (1000–2000 cells/well). The attachment, spreading, and proliferation of the cells were monitored every 30 minutes using the Xcelligence® Real-Time Cell Analysis system (ACEA Biosciences Inc.) in a cell culture incubator. […] When cells reach to an cell index (CI) impedance values about 1.5 usually in 24 hours cells were treated with the chalcones 1, 9 and 11. DMSO was used as a negative control. Each experiment was repeated three times. The CI value was noted every 10 minutes for the first 24 hours and then every 30 minutes upon chalcone treatments. The cell inhibition rate calculated as follows (%)=[1-(CItreatedcells/CIDMSO)]×100 .

[3] = system: pAkt (Ser473) in Mahlavu cells; test: Western blot, phosphorylated Akt levels; assay type: cell-based, human; conditions: IC50 concentrations (Fig. 2), 24 h
Method: Figure 4 Proteins targeted by the compounds. Human liver cancer cells (Mahlavu) were treated with the IC50 concentrations of the selected compounds or DMSO control for 24 h. […] (B–D) Quantification of the results using ImageJ software. (E) Schematic representation of the molecular mechanism of action of the compounds. Blocked signaling is crossed.
In order to investigate the significant bioactivity of the chalcones 1, 9 and 11 on human liver cancer cell line Mahlavu which has an hyperactive PI3K/Akt pathway due to PTEN-deficiency[13], we analyzed the effect of the chalcones on the active phosphorylated Akt levels in this cell line.
Poorly differentiated liver cancer cell line Mahlavu cells were cultured in 100 mm culture dish for 24 h. […] Anti-PARP antibody (Cell Signaling, 9532), pAkt (Ser473) antibody (Cell Signaling, 9271), Akt antibody (Cell Signaling, 9272), pNFkB-p65 (Ser468) antibody (Snat Cruz, sc101750), p21 antibody (Millipore, 05345), pRb (Ser807/811) antibody (Cell Signaling, 9308), Rb antibody (Santa Cruz, sc102), actin antibody (Sigma, A5441) and calnexin antibody (Sigma, C4731) were used as primary antibodies. Anti-rabbit (6154) and anti-mouse (0168) secondary antibodies were used. ImageJ tool ([42]) used for protein band intensity comparison. Original Full length blots are given as Supplementary Information.

[4] = Huh-7, SRB, 72 h, 2.5–40 μM, triplicate
[5] = 24h, read-out: IC50 values calculated from RT-CES experiment data, Mahlavu 24h
[6] = 72h, read-out: IC50 values calculated from RT-CES experiment data, Mahlavu 72h

Compound	IC50 (Huh7; [4])	IC50 (HepG2)	IC50 (Hep3B)	IC50 (Mahlavu [1])	IC50 (FOCUS)	IC50 (Mahlavu [2]; [5])	IC50 (Mahlavu [2]; [6])	levels of pAkt [3]	IC50 (Huh7; Huh-7, 72 h)
COc1ccc(C(=O)/C=C/c2cccc([N+](=O)[O-])c2)cc1 [compound 1]	< 2.5 µM	4.2 µM	6.2 µM	< 2.5 µM	4.9 µM	1.2 µM	2.3 µM	decrease in the levels of pAkt	–
O=C(/C=C/c1ccccc1)c1ccccc1 [compound 9]	–	7.3 µM	7.3 µM	6.3 µM	3.3 µM	4.9 µM	6.8 µM	decrease in the levels of pAkt	5.3 µM
O=C(/C=C/c1ccc(Cl)cc1)c1ccccc1 [compound 11]	4.3 µM	6.5 µM	5.9 µM	5.3 µM	3.1 µM	4.9 µM	6.8 µM	decrease in the levels of pAkt	–
